Earlier results, collected in publication PMC6182381, “Population Pharmacokinetics and Exposure-Response Relationships of Naldemedine” (Pharmaceutical Research, 2018).
Read-outs that look alike come from different tables or passages of the source.

How the values were obtained:
[1] = system: patients with chronic non-cancer pain and OIC; parameters: method as in PMID 28371937; details: Phase 2b, cited from earlier work
[2] = system: patients with chronic non-cancer pain and OIC; parameters: method as in PMID 28576452; details: cited from earlier work

CC(C)(NC(=O)C1=C(O)[C@@H]2Oc3c(O)ccc4c3[C@@]23CCN(CC2CC2)[C@H](C4)[C@]3(O)C1)c1nc(-c2ccccc2)no1 [naldemedine]
Treatment-emergent adverse events ([1]; 0.1 mg): 66.1% | Treatment-emergent adverse events ([1]; 0.2 mg): 67.2% | Treatment-emergent adverse events ([1]; 0.4 mg): 78.6% | Treatment-related adverse events (patients) ([2]; Study 1314 V9231, 59 of 271 patients): 22% | Treatment-related adverse events (patients) ([2]; Study 1315 V9232, 54 of 271 patients): 20%
